Measurements from US10168342B2, “Lipid probes and uses thereof” (THE SCRIPPS RESEARCH INSTITUTE, priority 2015, dated 2019).
Like-named read-outs stand apart in the source and are kept apart here.

Experiments:
[1] = target: T1, AEA-DA lipid probe targets in Neuro2a cells (Mus musculus, UniProt Q9D024)
T1 sequence (Q9D024 21-483): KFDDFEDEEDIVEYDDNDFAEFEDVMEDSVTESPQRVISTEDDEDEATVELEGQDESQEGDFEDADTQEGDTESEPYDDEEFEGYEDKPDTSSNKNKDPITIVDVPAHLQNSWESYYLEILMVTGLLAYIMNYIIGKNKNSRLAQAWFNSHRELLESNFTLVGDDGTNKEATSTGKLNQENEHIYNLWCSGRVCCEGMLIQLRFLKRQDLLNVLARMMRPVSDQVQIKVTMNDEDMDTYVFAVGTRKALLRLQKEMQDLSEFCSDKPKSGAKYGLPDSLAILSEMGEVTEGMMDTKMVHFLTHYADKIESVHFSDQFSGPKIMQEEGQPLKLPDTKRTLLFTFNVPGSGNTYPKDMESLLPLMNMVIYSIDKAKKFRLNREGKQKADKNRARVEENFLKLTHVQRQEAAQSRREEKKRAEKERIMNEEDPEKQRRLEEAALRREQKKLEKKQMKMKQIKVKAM

[2] = target: T2, AEA-DA lipid probe targets in Neuro2a cells (Mus musculus, UniProt Q8K0C4)
T2 sequence (Q8K0C4 1-503): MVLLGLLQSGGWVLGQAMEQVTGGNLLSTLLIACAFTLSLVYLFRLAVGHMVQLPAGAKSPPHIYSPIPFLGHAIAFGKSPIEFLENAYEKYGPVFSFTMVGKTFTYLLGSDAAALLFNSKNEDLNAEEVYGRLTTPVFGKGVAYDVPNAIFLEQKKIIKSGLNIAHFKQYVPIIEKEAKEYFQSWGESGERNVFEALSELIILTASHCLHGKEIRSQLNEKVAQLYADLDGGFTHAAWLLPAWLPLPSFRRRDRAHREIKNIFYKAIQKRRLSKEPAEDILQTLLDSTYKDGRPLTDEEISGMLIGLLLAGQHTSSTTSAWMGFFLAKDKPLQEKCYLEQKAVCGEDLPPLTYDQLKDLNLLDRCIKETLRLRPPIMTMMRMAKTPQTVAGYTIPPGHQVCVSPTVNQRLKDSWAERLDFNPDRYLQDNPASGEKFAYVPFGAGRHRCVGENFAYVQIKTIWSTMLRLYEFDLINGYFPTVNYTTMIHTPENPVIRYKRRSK

[3] = target: T3, AEA-DA lipid probe targets in Neuro2a cells (Mus musculus, UniProt Q8BIJ6); settings: protein Iars2, Neuro2a cells
T3 sequence (Q8BIJ6 49-1012): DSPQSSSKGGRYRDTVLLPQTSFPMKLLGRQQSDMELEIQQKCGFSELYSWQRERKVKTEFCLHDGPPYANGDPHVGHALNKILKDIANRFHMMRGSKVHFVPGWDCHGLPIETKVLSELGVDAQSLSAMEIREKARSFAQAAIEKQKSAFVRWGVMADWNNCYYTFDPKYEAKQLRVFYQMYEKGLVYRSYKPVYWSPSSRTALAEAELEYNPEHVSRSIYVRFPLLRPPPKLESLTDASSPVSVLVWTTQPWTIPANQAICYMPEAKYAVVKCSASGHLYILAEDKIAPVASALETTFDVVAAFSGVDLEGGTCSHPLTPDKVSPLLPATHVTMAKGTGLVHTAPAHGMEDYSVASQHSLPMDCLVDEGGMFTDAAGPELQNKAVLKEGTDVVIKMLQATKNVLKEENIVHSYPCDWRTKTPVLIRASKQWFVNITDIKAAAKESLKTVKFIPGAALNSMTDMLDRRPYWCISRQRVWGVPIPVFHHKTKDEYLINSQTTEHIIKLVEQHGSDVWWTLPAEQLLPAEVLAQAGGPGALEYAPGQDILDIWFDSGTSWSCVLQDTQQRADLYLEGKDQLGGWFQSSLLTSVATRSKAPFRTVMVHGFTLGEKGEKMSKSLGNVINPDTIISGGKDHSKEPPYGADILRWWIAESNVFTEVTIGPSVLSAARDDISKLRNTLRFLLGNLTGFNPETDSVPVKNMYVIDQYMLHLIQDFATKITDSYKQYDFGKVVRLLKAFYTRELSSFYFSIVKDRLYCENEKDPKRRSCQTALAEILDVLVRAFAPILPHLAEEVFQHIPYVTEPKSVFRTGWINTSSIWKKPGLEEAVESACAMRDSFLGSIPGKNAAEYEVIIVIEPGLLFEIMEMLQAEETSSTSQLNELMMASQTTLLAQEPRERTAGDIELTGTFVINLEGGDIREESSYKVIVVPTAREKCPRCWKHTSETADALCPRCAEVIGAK

CCCCC/C=C\C/C=C\C/C=C\C/C=C\CCCC(=O)NCCO [AEA, anandamide, reference compound]
SILAC ratio, Ccdc47 ([1]; competitor 200 μM): 1.7 | SILAC ratio Cyp51a1 ([2]; competitor 200 μM): 1.8 | SILAC ratio (AEA-DA competition) ([3]; competitor 200 μM): 0.9

O=C(/C=C/c1cccnc1)NCCCCC1CCN(C(=O)c2ccccc2)CC1 [FK-866, reference compound]
SILAC ratio, Ccdc47 ([1]; competitor 25 μM): 1.3 | SILAC ratio Cyp51a1 ([2]; competitor 25 μM): 1.5

CN1CCN(C(=O)c2c(-c3ccccc3)c3cc([N+](=O)[O-])ccc3n2C)CC1 [KML110, (1-Methyl-5-nitro-3-phenyl-1H-indol-2-yl)(4-methylpiperazin-1-yl)methanone]
SILAC ratio, Ccdc47 ([1]; competitor 25 μM): 1.7 | SILAC ratio Cyp51a1 ([2]; competitor 25 μM): 1.2

CN1CCN(C(=O)c2[nH]c3ccc([N+](=O)[O-])cc3c2-c2ccccc2)CC1 [MJN228, (4-Methylpiperazin-1-yl)(5-nitro-3-phenyl-1H-indol-2-yl)methanone]
SILAC ratio, Ccdc47 ([1]; competitor 10 μM): 1.4 | SILAC ratio, Ccdc47 ([1]; competitor 25 μM): 1.8 | SILAC ratio, Ccdc47 ([1]; competitor 50 μM): 1.9 | SILAC ratio, Ccdc47 ([1]; competitor 100 μM): 3.1 | SILAC ratio Cyp51a1 ([2]; competitor 10 μM): 1.5 | SILAC ratio Cyp51a1 ([2]; competitor 25 μM): 2.2 | SILAC ratio Cyp51a1 ([2]; competitor 50 μM): 2.3 | SILAC ratio Cyp51a1 ([2]; competitor 100 μM): 3.1 | SILAC ratio (AEA-DA competition) ([3]; competitor 10 μM): 0.8 | SILAC ratio (AEA-DA competition) ([3]; competitor 25 μM): 1.0 | SILAC ratio (AEA-DA competition) ([3]; competitor 50 μM): 0.7

C=CCN(C)CCCCCCOc1ccc(C(=O)c2ccc(Br)cc2)c(F)c1 [Ro 48-8071, reference compound]
SILAC ratio, Ccdc47 ([1]; competitor 25 μM): 1.4 | SILAC ratio Cyp51a1 ([2]; competitor 25 μM): 1.3 | SILAC ratio (AEA-DA competition) ([3]; competitor 25 μM): 0.7
